Experimental data reported in patent publication US5446186A, “Structure and synthesis of nitrophenyl-EGTA, a caged calcium, intermediates thereof and a method of producing a high photochemical yield of liberated calcium” (priority 1993, dated 1995).
Entries after “also recorded” stand apart in the source; their conditions may differ. Read-outs that look alike come from different tables or passages of the source.

Tests used:
[1] = test system: chemically skinned psoas fibers from rabbit skeletal muscle; assay: Ca-induced contraction of chemically skinned skeletal muscle fibers after laser flash photolysis; assay type: cell-based; settings: for time to achieve half-maximal tension: 15° C., 347 nm ruby laser flash, NP-EGTA:Ca^2+ 1.9 mM at 1 mM free Mg^2+, or DM-nitrophen:Ca^2+ 1.4 mM at 40 μM free Mg^2+; for tension transients, NP-EGTA compared with DM-nitrophen: photoreleased Ca^2+; for maximal contraction / full tension after laser flash: single 347 nm ruby laser flash, free Mg^2+ 1 mM (NP-EGTA), 40 μM (DM-nitrophen); for Ca^2+ release as rate-limiting step for contraction: skinned skeletal muscle fiber
Text: The arrow indicates the time of a pulse from a frequency-doubled ruby laser (347 nm). For DM-nitrophen, before photolysis, the muscle-bathing solution contained (mM): Tes (100), HDTA (27.91), ATPNa2 (3.0), creatine phosphate (20), glutathione (10), DM-nitrophen (2.0), MgCl2 (1.19), CaCl2 (1.60). In the NP-EGTA solution there was (mM): Tes (100), HDTA (25.35), ATPNa2 (5.50), creatine phosphate (20), glutathione (10), NP-EGTA (2.1), MgCl2 (7.0), CaCl2 (1.9). The pH of both solutions was 7.0; the ionic strength was 0.2M. Tension development was measured as in Ref. 24.
Photolysis of nitrophenyl-EGTA:Ca^2+ and DM-nitrophen:Ca^2+ complexes were used to release Ca^2+ rapidly in chemically skinned psoas fibers from rabbit skeletal muscle. […] The time to achieve half-maximal tension using NP-EGTA was 17.9 ms and 18.1 ms with DM-nitrophen at 15° C. (see FIG. 4). […] It is interesting that there are no major effects, on the rate of the development of tension nor on the maximal contraction, due to a change in [Mg]free from 40 μM to 1 mM in these experiments.

[2] = pH 7.2; before photolysis; read-out: Kd for Ca^2+ (comparison chelators); cited from earlier work
[3] = DM-nitrophen:Ca^2+ complex; cited from earlier work
[4] = Mg^2+ affinity by titration of Mg^2+-indicator mag-fura-red without and with NP-EGTA; assay type: binding; settings: 40 mM hepes, 100 mM KCl, pH 7.2, 25° C.; absorbance at 480 nm
Procedure: The Mg^2+ affinity of NP-EGTA was determined by titration of the Mg^2+ -indicator, mag-fura-red (20 μM) without and with NP-EGTA (10 mM) in buffer (40 mM hepes, 100 mM KCl, pH=7.2) at 25° C.

[5] = Ca^2+ affinity by titration of chelator with Ca^2+, fluo-3 emission, Scatchard analysis; assay type: binding; settings: 40 mM hepes, 100 mM KCl, pH 7.2, 20° C.; before photolysis
Text: The affinity of NP-EGTA for Ca^2+ was obtained by titration of the chelator with incremental additions of Ca^2+. […] For any chelator:Ca^a+ complex to function effectively as a caged Ca, the pre-photolysis affinity should be high for two reasons. First, it is crucial that the resting or pre-photolysis [Ca^2+ ] is very low, i.e. that it is non-activating or sub-threshold for the biological system being investigated. The Kd^Ca and the total amounts of Ca^2+ and chelator determine [Ca^2+ ]free. Secondly, the percentage of chelator loaded with Ca^2+ before photolysis is important as this is a factor which determines how much Ca^2+ is liberated upon photolysis, as Ca^2+ can only be photoreleased if it is complexed. Also, if the chelator is frilly loaded, then the photoreleased Ca^2+ will not be rebound by unphotolysed, unloaded chelator, i.e. step increases rather than pulses of Ca^2+ will be produced (see ref. 19, 20).

[6] = Absorption and fluorescence spectral properties; assay type: physicochemical
Procedure: FIG. 1 is an absorption spectra of nitrophenyl-EGTA. The absorption spectrum of a solution of NP-EGTA ([…]) in buffer (40 mM hepes, 100 mM KCl, pH 7.2) is shown (spectrum a). The spectrum is altered (spectrum b) on addition of saturating Ca^2+ (0.20 mM). Photolysis of this sample for 300 s with the filtered output of a 1-kW Hg are lamp yielded photoproducts with spectrum (c).
The absorption spectra of NP-EGTA without and with saturating Ca^2+ are shown in FIG. 1(a) and (b) respectively. The extinction coefficients at 260 and 347 nm are 5.52×10^3 M^-1 cm^-1 and 974 M^-1 cm^-1 respectively in Ca^2+ -free buffer (40 mM hepes, 100 mM KCl, pH 7.2). Saturating Ca^2+ produces a 10% decrease in the absorption at 260 nm. The absorption spectrum changes to that shown in FIG. 1(c) upon complete photolysis in the presence of Ca^2+. […] In fact, fluo-3 saturated with Ca^2+ is about 2.1×10s-fold more fluorescent at 530 nm than NP-EGTA is at 400 nm.

[7] = Selectivity for Ca^2+ versus Mg^2+: fluo-3 signal on addition of 1 mM Mg^2+ and on irradiation; assay type: binding
[8] = Quantum yield of photolysis by HPLC, comparison to caged-Pi; assay type: physicochemical
Procedure: The filtered output of 1000-W high pressure Hg arc lamp was used to photolyze solutions of NP-EGTA (1.77 mM) or caged-Pi (3.12 mM) in buffer (40 mM hepes, 100 mM KCl, pH 7.2) with absorbances of 0.0105 in a cuvette with a pathlength of […]. Each solution also contained inosine (100 mM) as the internal standard.
On the left, t=0 s, on the fight, t=15 s.
On the left, t=0 s, on the fight, t=15 s. HPLC was performed using a Novapak C18 reverse-phase HPLC column and two Waters 501 pumps fitted with a Waters 680 automated control module delivering 2 ml/min. Pump A delivered […] and pump B 80% acetonitrile/0.052% TFA. The gradient was for 0-5 min 100% A, from 5-20 min a linear change to 80% A, and from 20-40 min 80% A. The eluent was monitored by a Waters 990 photodiode array detector and chromatograms are shown at 260 nm.
The quantum yield of NP-EGTA photolysis was determined by comparison to that of caged-Pi which has previously been determined to have a quantum yield of photolysis of 0.54 (17). The time-course of disappearance of the caged compounds was followed by HPLC analysis of the reaction mixture (FIG. 2). The amount of NP-EGTA or caged-Pi remaining in the reaction mixture was normalized for each HPLC analysis by comparison to a photochemically inert internal standard, inosine (100 mM). […] Under the same conditions (i.e. flux density), 10.3% of NP-EGTA was photolyzed when saturating Ca^a+ (3.0 mM) was present (FIG. 2b). Thus, the quantum yield of photolysis of the NP-EGTA:Ca^2+ complex is 0.23.

[9] = Ca^2+-free buffer, 40 mM hepes, 100 mM KCl, pH 7.2

COc1cc(C(CN(CC(=O)O)CC(=O)O)N(CC(=O)O)CC(=O)O)c([N+](=O)[O-])cc1OC (centres unmarked) [DM-nitrophen, reference compound]
time to achieve half-maximal tension [1]: 18.1 ms | tension transients, NP-EGTA compared with DM-nitrophen [1]: identical, rapid tension transients | maximal contraction / full tension after laser flash [1]: Rapid development of maximal tension | Ca^2+ release as rate-limiting step for contraction [1]: not rate-limiting | Kd [2]: 0.005 µM | Ca^2+ release t1/2 [3]: ≤ 180 microseconds

O=C(O)CN(CCOCCOCCN(CC(=O)O)CC(=O)O)CC(=O)O [EGTA, ethylenebis(oxyethylenenitrilo)tetraacetic acid]
Kd [2]: 0.15 µM

O=C(O)CN(CCOCCOCC(c1ccccc1[N+](=O)[O-])N(CC(=O)O)CC(=O)O)CC(=O)O (centres unmarked) [NP-EGTA]
Kd [4]: 8800 µM | Kd for Mg^2+ [4]: in the mM range | Kd [5]: 0.08 µM | time to achieve half-maximal tension [1]: 17.9 ms | time to achieve half-maximal tension ([1]; listed as nitrophenyl-EGTA): 18 ms | tension transients, NP-EGTA compared with DM-nitrophen [1]: identical, rapid tension transients | maximal contraction / full tension after laser flash [1]: releases sufficient Ca^2+ to generate full tension in the muscle fiber | maximal contraction / full tension after laser flash ([1]; listed as nitrophenyl-EGTA): maximal contraction after a single flash | Ca^2+ release as rate-limiting step for contraction [1]: also not rate-limiting | fluorescence emission [6]: virtually non-fluorescent | extinction coefficient at 260 nm [6, 9]: 5520 M⁻¹ cm⁻¹ | extinction coefficient at 347 nm [6, 9]: 974 M⁻¹ cm⁻¹ | decrease in absorption at 260 nm on saturating Ca^2+ ([6]; saturating Ca^2+): 10% | effect of 1 mM Mg^2+ on fluo-3 signal ([7]; 0.655 mM NP-EGTA with 0.55 mM Ca^2+): no effect on the fluo-3 signal; also recorded: no increase in the fluo-3 signal | Ca^2+ liberation on irradiation in presence of Mg^2+ (fluo-3 signal) ([7]; frequency-doubled ruby laser, 347 nm): liberates Ca^2+ from the NP-EGTA:Ca^2+ complex | quantum yield of photolysis, in the absence of Ca^2+ ([8]; Ca^2+-free, pH 7.2): 0.20 | percent photolyzed with Ca^2+ ([8]; after 15 s, saturating Ca^2+ (3.0 mM), 0.25 min, 1770 µM): 10.3% | percent photolyzed without Ca^2+ ([8]; same flux density, Ca^2+-free, 1770 µM): 8.91% | quantum yield of photolysis, in the presence of Ca^2+ ([8]; saturating Ca^2+ (3.0 mM), pH 7.2): 0.23 | photolysis efficiency relative to DM-nitrophen ([8]; versus DM-nitrophen (ref. 4)): the same as that of DM-nitrophen | photolysis efficiency relative to nitr-5 or nitr-7 ([8]; versus nitr-5 or nitr-7 (ref. 2)): ~6 times

CC(OP(=O)(O)O)c1ccccc1[N+](=O)[O-] (centres unmarked) [caged-Pi, 1-(o-nitrophenyl)-ethyl phosphate, reference compound]
percent photolyzed ([8]; after 15 s, caged-Pi 3.12 mM, 0.25 min): 15.1%

Cc1ccc(N(CC(=O)O)CC(=O)O)c(OCCOc2cc(C(O)c3cc4c(cc3[N+](=O)[O-])OCO4)ccc2N(CC(=O)O)CC(=O)O)c1 (centres unmarked) [nitr-5]
Ca^2+ released on 50% photolysis (1.0 mM Ca^2+ present): 0.80 mM | prephotolysis free [Ca^2+] (1.0 mM Ca^2+ present): 0.145 mM

Cc1ccc(N(CC(=O)O)CC(=O)O)c(O[C@@H]2CCC[C@@H]2Oc2cc(C(O)c3cc4c(cc3[N+](=O)[O-])OCO4)ccc2N(CC(=O)O)CC(=O)O)c1 (some centres unmarked) [nitr-7]
Ca^2+ released on 50% photolysis ([chelator]:[Ca^2+] 2 mM:1.50 mM): 3 mM
